Broadly, the IC50 is the point on the concentration scale where inhibition reaches its midpoint. A higher IC50 goes with weaker potency in that assay.

Molecules are shown by their SMILES.

This test deals with MMP13 (Homo sapiens (Human), UniProt P45452). The test can be described thus: EnzoLyte 520 Generic MMP Assay Kit, 5-FAM/QXL 520 FRET peptide substrate. In kind it is biochemical. The text has this:
The EnzoLyte™ 520 Generic MMP Assay Kit (AnaSpec Inc.) can detect the activity of several MMPs including MMP-1, 2, 3, 7, 8, 9, 13, and 14. This kit uses a 5-FAM/QXL™ 520 fluorescence resonance energy transfer (FRET) peptide as an MMP substrate. In the intact FRET peptide, the fluorescence of 5-FAM is quenched by QXL™ 520. Upon cleavage into two separate fragments by MMPs, the fluorescence of 5-FAM is recovered, and can be monitored at excitation/emission wavelengths=490 nm/520 nm. The assays are performed in a convenient 96-well or 384-well microplate format.
The compound `Cc1noc(-c2cc3cc(-c4cc(C(=O)NCc5ccncc5)nn4C)ccc3[nH]2)n1` showed an IC50 of 4 nM.

The compound `Cc1noc(-c2cc3cc(-c4cc(C(=O)NCc5cccs5)nn4C)ccc3[nH]2)n1` registered an IC50 of 44 nM.

On to `Cc1noc(-c2cc3cc(-c4nc(C(=O)N5CCCCC5)[nH]c4C)ccc3[nH]2)n1`, for which it took 64 nM to reach half-maximal inhibition (IC50).

In turn, `Cc1noc(-c2cc3cc(-c4nc(C(=O)N5CCCC5)[nH]c4C)ccc3[nH]2)n1` displayed an IC50 of 113 nM.

On to `Cc1[nH]c(C(=O)NCc2ccncc2)nc1-c1ccc2[nH]c(-c3nc(C4CC4)no3)cc2c1`, for which the IC50 worked out at 6 nM.

On to `Cc1[nH]c(C(=O)NCc2ccncc2)nc1-c1ccc2[nH]c(-c3nc(C(C)C)no3)cc2c1`, for which the IC50 came out at 18 nM.

For `Cc1noc(-c2cc3cc(-c4ccnc(C(=O)NCc5ccncc5)c4)ccc3[nH]2)n1`, half-maximal inhibition (IC50) was put at 12 nM.

`Cc1nc(-c2cc3cc(-c4ccnc(C(=O)NCc5ccncc5)c4)ccc3[nH]2)no1` showed a 50% inhibitory concentration (IC50) of 38 nM.

The compound `Cn1cc(-c2cc3cc(-c4cc(C(=O)NCc5ccc(C(=O)O)cc5)nn4C)ccc3[nH]2)cn1` came in with an IC50 of 1.5 nM.

In turn, `Cc1noc(-c2cc3cc(-c4cc(C(=O)NCc5ccc(C(=O)O)cc5)nn4C)ccc3[nH]2)n1` gave an IC50 of 0.2 nM.

For `Cn1nc(C(=O)NCc2ccc(C(=O)O)cc2)cc1-c1ccc2[nH]c(-c3cccnc3)cc2c1`, half-maximal inhibition (IC50) required 3 nM.

`Cn1nc(C(=O)NCc2ccc(C(=O)O)cc2)cc1-c1ccc2[nH]c(-c3ccncc3)cc2c1` showed an IC50 of 0.8 nM.

In turn, `Cn1nc(C(=O)NCc2ccc(C(=O)O)cc2)cc1-c1ccc2[nH]c(-c3ncccn3)cc2c1` displayed an IC50 of 1.6 nM.

With `Cn1nc(C(=O)NCc2ccc(C(=O)O)cc2)cc1-c1ccc2[nH]c(-c3cncnc3)cc2c1`, 5 nM corresponded to half-maximal inhibition (IC50).

As to `Cc1cc(Cn2cc(-c3nc(C(=O)NCc4ccc(C(=O)O)cc4)[nH]c3C)cn2)ccc1F`, the IC50 was found to be 88 nM.

Turning to `Cc1cc(Cn2cc(-c3ccnc(C(=O)NCc4ccc(C(=O)O)cc4)c3)cn2)ccc1F`, the IC50 was determined as 130 nM.

In turn, `Cc1noc(-c2cc3cc(-c4ccnc(C(=O)NCc5ccc(C(=O)O)cc5)c4)ccc3[nH]2)n1` registered an IC50 of 0.2 nM.

As for `CCOC(=O)c1cc2cc(-c3ccnc(C(=O)NCc4ccc(C(=O)O)cc4)c3)ccc2[nH]1`, the IC50 worked out at 0.7 nM.

With `Cc1cc(-c2cc3cc(-c4cc(C(=O)NCc5ccc(C(=O)O)cc5)nn4C)ccc3[nH]2)cc(F)n1`, the midpoint of inhibition, the IC50, lay at 53 nM.

As to `Cn1nc(C(=O)NCc2ccc(C(=O)O)cc2)cc1-c1ccc2[nH]c(-c3ccnc(F)c3)cc2c1`, the IC50 was 2 nM.

In the case of `Cc1cc(-c2cc3cc(-c4cc(C(=O)NCc5ccc(C(=O)O)cc5)nn4C)ccc3[nH]2)ccc1F`, inhibition was half-maximal at 30 nM (IC50).

The compound `Cn1nc(C(=O)NCc2ccc(C(=O)O)cc2)cc1-c1ccc2[nH]c(C3=NCCO3)cc2c1` gave an IC50 of 43 nM.

`Cn1nc(C(=O)NCc2ccc(C(=O)O)cc2)cc1-c1ccc2[nH]c(-c3ccc(F)nc3)cc2c1` registered an IC50 of 48 nM.

For `Cn1nc(C(=O)NCc2ccc(C(=O)O)cc2)cc1-c1ccc2[nH]c(C#N)cc2c1`, the 50% inhibitory concentration (IC50) is 52 nM.

`Cc1noc(-c2cc3cc(-c4cc(C(=O)NCc5ccc(C(=O)O)cc5)ncc4C)ccc3[nH]2)n1` registered a concentration for half-maximal inhibition (IC50) of 0.2 nM.

`Cc1noc(-c2cc3cc(-c4nc(C(=O)NCc5ccc(C(=O)O)cc5)[nH]c4C)ccc3[nH]2)n1` displayed an IC50 of 0.2 nM.

As to `Cc1noc(-c2cc3cc(-c4nc(C(=O)NCc5ccc(=O)[nH]c5)[nH]c4C)ccc3[nH]2)n1`, half-maximal inhibition (IC50) required 0.2 nM.

Consider `Cc1noc(-c2cc3cc(-c4nc(C(=O)NCc5noc(C)n5)[nH]c4C)ccc3[nH]2)n1`, for which inhibition was half-maximal at 0.9 nM (IC50).

The compound `Cc1noc(-c2cc3cc(-c4nc(C(=O)NC5CCOCC5)[nH]c4C)ccc3[nH]2)n1` returned an IC50 of 106 nM.

The compound `Cc1noc(-c2cc3cc(-c4nc(C(=O)NCc5ccnnc5)[nH]c4C)ccc3[nH]2)n1` displayed an IC50 of 1.2 nM.

In the case of `Cc1noc(-c2cc3cc(-c4nc(C(=O)NCc5nnc[nH]5)[nH]c4C)ccc3[nH]2)n1`, half-maximal inhibition (IC50) required 6 nM.

`Cc1noc(-c2cc3cc(-c4nc(C(=O)NCc5ccccn5)[nH]c4C)ccc3[nH]2)n1` showed an IC50 of 3 nM.

`Cc1noc(-c2cc3cc(-c4nc(C(=O)NCC5CCCCO5)[nH]c4C)ccc3[nH]2)n1` (centres unmarked) yielded an IC50 of 5 nM.

Turning to `Cc1noc(-c2cc3cc(-c4cc(C(=O)NCc5ccncc5)ncc4C)ccc3[nH]2)n1`, half-maximal inhibition (IC50) was put at 14 nM.

`Cc1noc(-c2cc3cc(-c4nc(C(=O)NCc5ccc(C(O)C(F)(F)F)cc5)[nH]c4C)ccc3[nH]2)n1` (centres unmarked) showed an IC50 of 18 nM.

`Cc1noc(-c2cc3cc(-c4nc(C(=O)NCCN5CCOCC5)[nH]c4C)ccc3[nH]2)n1` gave an IC50 of 5 nM.

For `Cc1noc(-c2cc3cc(-c4nc(C(=O)NCc5cccnc5)[nH]c4C)ccc3[nH]2)n1`, the IC50 was 0.6 nM.

In the case of `Cc1noc(-c2cc3cc(-c4nc(C(=O)NCc5ccncn5)[nH]c4C)ccc3[nH]2)n1`, the IC50 was 0.6 nM.

As for `Cc1noc(-c2cc3cc(-c4nc(C(=O)NCc5nnc(C)[nH]5)[nH]c4C)ccc3[nH]2)n1`, the IC50 was determined as 17 nM.

`Cc1noc(-c2cc3cc(-c4nc(C(=O)NC(C)c5cccs5)[nH]c4C)ccc3[nH]2)n1` (centres unmarked) registered an IC50 of 15 nM.

Turning to `Cc1noc(-c2cc3cc(-c4nc(C(=O)NCc5cccs5)[nH]c4C)ccc3[nH]2)n1`, the IC50 is 2 nM.

Compound `Cc1noc(-c2cc3nc(-c4nc(C(=O)NCc5ccncc5)[nH]c4C)ccc3[nH]2)n1` came in with an IC50 of 20 nM.

Take `Cc1noc(-c2cc3cc(-c4nc(C(=O)NCC5COCCO5)[nH]c4C)ccc3[nH]2)n1` (centres unmarked): the IC50 was 1.9 nM.

On to `Cc1noc(-c2cc3cc(-c4cc(C(=O)NCc5ccco5)nn4C)ccc3[nH]2)n1`, for which half-maximal inhibition (IC50) required 27 nM.

`Cc1noc(-c2cc3cc(-c4cc(C(=O)NCc5ccoc5)nn4C)ccc3[nH]2)n1`: half-maximal inhibition (IC50) was put at 45 nM.

Compound `Cc1noc(-c2cc3cc(-c4nc(C(=O)NCc5ccoc5)[nH]c4C)ccc3[nH]2)n1` came in with an IC50 of 3 nM.

Consider `Cc1noc(-c2cc3cc(-c4cc(C(=O)NCc5ccc(C#N)cc5)nn4C)ccc3[nH]2)n1`, for which the concentration for half-maximal inhibition (IC50) is 10 nM.

The compound `Cc1noc(-c2cc3cc(-c4nc(C(=O)NCc5ccc(C#N)cc5)[nH]c4C)ccc3[nH]2)n1` came in with an IC50 of 2 nM.

As to `Cc1noc(-c2cc3cc(-c4cc(C(=O)NCc5ccc(F)cc5)nn4C)ccc3[nH]2)n1`, the IC50 worked out at 26 nM.

In turn, `Cc1noc(-c2cc3cc(-c4nc(C(=O)NCc5ccc(F)cc5)[nH]c4C)ccc3[nH]2)n1` returned an IC50 of 6 nM.

As for `Cc1noc(-c2cc3cc(-c4nc(C(=O)NCc5nnc6n5CCC6)[nH]c4C)ccc3[nH]2)n1`, the IC50 is 4 nM.

The compound `Cc1noc(-c2cc3cc(-c4nc(C(=O)NCc5ccnc(N)c5)[nH]c4C)ccc3[nH]2)n1` displayed an IC50 of 1.3 nM.

Regarding `Cc1noc(-c2cc3cc(-c4nc(C(=O)NCC5(O)CCOCC5)[nH]c4C)ccc3[nH]2)n1`, the half-maximal inhibitory concentration (IC50) was 6 nM.

For the compound `Cc1noc(-c2cc3cc(-c4nc(C(=O)NCc5ccc(N)nc5)[nH]c4C)ccc3[nH]2)n1`, the IC50 was 2 nM.

`CCNC(=O)c1nc(-c2ccc3[nH]c(-c4nc(C)no4)cc3c2)c(C)[nH]1`: it took 10 nM to reach half-maximal inhibition (IC50).

For the compound `CCOC(=O)c1cc2cc(-c3cc(C(=O)NCc4ccc(CC(=O)O)cc4)nn3C)ccc2[nH]1`, the concentration for half-maximal inhibition (IC50) was 3 nM.

Compound `CCOC(=O)c1[nH]c2ccc(-c3nc(C(=O)NCc4ccncc4)[nH]c3C)cc2c1F` came in with an IC50 of 7 nM.

In turn, `CCOC(=O)c1cc2cc(-c3cc(C(=O)NCc4ccc(=O)[nH]c4)nn3C)ccc2[nH]1` displayed an IC50 of 125 nM.

The compound `CCOC(=O)c1cc2cc(-c3cc(C(=O)NCc4ccncc4)nn3C)ccc2[nH]1` showed an IC50 of 97 nM.

In turn, `CCOC(=O)c1cc2cc(-c3ccnc(C(=O)NCc4ccc(=O)[nH]c4)c3)ccc2[nH]1` showed an IC50 of 35 nM.

With `CCOC(=O)c1cc2cc(-c3cc(C(=O)NCc4ccc(CC(=O)OC)cc4)nn3C)ccc2[nH]1`, the midpoint of inhibition, the IC50, lay at 51 nM.

Compound `CCOC(=O)c1cc2cc(-c3nc(C(=O)NCc4ccncc4)[nH]c3C)ccc2[nH]1` had an IC50 of 2 nM.

As to `CCOC(=O)c1cc2cc(-c3nc(C(=O)NCc4ccncc4)[nH]c3C)cnc2[nH]1`, the IC50 stood at 49 nM.

Compound `CCOC(=O)c1cc2cc(-c3nc(C(=O)NCc4ccncc4)[nH]c3C)ncc2[nH]1` came in with an IC50 of 7 nM.

For the compound `CCOC(=O)c1cc2nc(-c3nc(C(=O)NCc4ccncc4)[nH]c3C)ccc2[nH]1`, half-maximal inhibition (IC50) was put at 95 nM.

Consider `CCOC(=O)c1cc2cc(-c3cc(C(=O)NCc4ccncc4)ncc3C)ccc2[nH]1`, for which the IC50 came to 155 nM.

`COC(=O)c1cc(-c2ccc3[nH]c(-c4nc(C)no4)cc3c2)n(C)n1`: half-maximal inhibition (IC50) was put at 190 nM.

`Cc1noc(-c2cc3cc(-c4cc(C(=O)NCc5nccs5)nn4C)ccc3[nH]2)n1` [1-methyl-5-[2-(3-methyl-1,2,4-oxadiazol-5-yl)-1H-indol-5-yl]-N-(1,3-thiazol-2-ylmethyl)-1H-pyrazole-3-carboxamide]: it took 73 nM to reach half-maximal inhibition (IC50).

Compound `Cc1noc(-c2cc3cc(-c4cc(C(=O)NCc5cscn5)nn4C)ccc3[nH]2)n1` [1-methyl-5-[2-(3-methyl-1,2,4-oxadiazol-5-yl)-1H-indol-5-yl]-N-(1,3-thiazol-4-ylmethyl)-1H-pyrazole-3-carboxamide] returned an IC50 of 94 nM.

`Cc1noc(-c2cc3cc(-c4cc(C(=O)NCc5cncs5)nn4C)ccc3[nH]2)n1` [1-methyl-5-[2-(3-methyl-1,2,4-oxadiazol-5-yl)-1H-indol-5-yl]-N-(1,3-thiazol-5-ylmethyl)-1H-pyrazole-3-carboxamide]: the midpoint of inhibition, the IC50, lay at 10 nM.

In turn, `Cc1noc(-c2cc3cc(-c4cc(C(=O)NCC5CCOCC5)nn4C)ccc3[nH]2)n1` [1-methyl-5-[2-(3-methyl-1,2,4-oxadiazol-5-yl)-1H-indol-5-yl]-N-(tetrahydro-2H-pyran-4-ylmethyl)-1H-pyrazole-3-carboxamide] displayed an IC50 of 116 nM.

The values above are taken from patent US8785489B2, “Heteroaryl substituted indole compounds useful as MMP-13 inhibitors” (Boehringer Ingelheim International GmbH, priority 2008, dated 2014).
